According to patent publication US20100172875A1, “OIL-IN-WATER EMULSION AND ITS USE FOR THE DELAYED RELEASE OF ACTIVE ELEMENTS” (NESTEC S.A., priority 2007, published 2010):
Where two headings read alike, the source gives them in different places.

What was measured:
[1] = active element release into the headspace of emulsions under in vitro dynamic conditions, monitored by PTR-MS; type: physicochemical; conditions: for significance of Tmax difference: emulsion of this invention 5 wt % (MG:MCT 1:20) vs simple reference emulsion 5 wt % MCT, Fisher LSD, α<0.05
Excerpt: The Tmax of a given active element released from a given emulsion is a parameter determined from the curve representing the variation over time of the given active element concentration in the water phase or in the headspace of the emulsion or of product containing the emulsion under dynamic condition (denoted as release curve) as time at which the measured concentration of the given active element reaches its maximum (FIG. 1). The analytical methods that can be applied for measurement of release curve and corresponding Tmax in dynamic condition include, but are not restricted to, measuring in headspace under a continuous purging flow of nitrogen and analyzing the active element in the purged headspace gas through its specific mass-to-charge using Proton Transfer Reaction-Mass Spectrometry (PTR-MS) (Pollien, P., Lindinger, C., Yeretzian, C., and Blank, I., “Proton Transfer Reaction Mass Spectrometry, a Tool for On-Line Monitoring of Acrylamide Formation in the Headspace of Maillard Reaction Systems and Processed Food,” Analytical Chemistry, Vol. 75, No. 20, 2003, pp. 5488-5494).
A double-jacketted glass cell was held at 36° C. with a circulating water bath. This cell was put in the oven which was held at 60° C. in order to avoid cold points and water condensation. The headspace cell was continuously purged at 200 sccm (standard cubic centimeters per minute) with pure nitrogen. Prior to introduction into the PTR-MS, the headspace was diluted with 1960 sccm of nitrogen to avoid water saturation of the instrument.
When all the set-up had been thermo-stabilized, 100 ml of sample, after being stabilized at 36° C. in a water bath, was poured inside the cell, which was quickly reconnected and put under agitation at 135 rpm. The release of active elements was monitored on-line during 10 minutes for each sample.
Nine specific masses were selected based on the scan data, i.e., m/z 45 for acetaldehyde, m/z 83 for cis-3-Hexen-1-ol, m/z 87 for diacetyl, m/z 99 for 2E-hexenal, m/z 107 for benzaldehyde, m/z 111 for octanal, m/z 131 for ethyl isovalerate, m/z 137 linalool, m/z 167 for 3-methoxy-2-isobutylpyrazine.
The PTR-MS signals (ion count) enabled us to calculate the active element concentration in the headspace of the emulsion so that to build the release curve for the active element. Cmax of a given active element released from a given emulsion was determined from the release curve as the maximum concentration of the active element released in the headspace of the emulsion, expressed in ppmV (parts per million in volume).
Tmax of a given active element released from a given emulsion was determined from the release curve as the time to reach maximum concentration of the active element released in the headspace of the emulsion, expressed in seconds. The nine active elements are listed in X axis and sorted along their logP, from the lowest logP value (hydrophilic compounds) to the highest logP (lipophilic compounds). Black, grey and hatched bars represent respectively Tmax the active elements released in the headspace of an oil-in-water emulsion containing with 10 wt % Medium Chain Triglycerides (MCT) (herein labelled as simple emulsion with 10 wt % MCT), of an oil-in-water emulsion containing 5 wt % MCT (herein labelled as simple reference emulsion with 5 wt % MCT), and an oil-in-water emulsion containing 5 wt % of an 1:20 mixture of a unsaturated monoglyceride (DIMODAN MO90, Danisco, Denmark) and MCT (herein Emulsion of the present invention with 5 wt % (MG:MCT 1:20)). All Tmax values were obtained on 6 replicated measurements. Tmax of 2E-Hexenal for the simple emulsion with 10 wt % MCT is not determined because its concentration in the headspace was continuously and gradually increasing over the 10 minutes of measurement. […]

[2] = octanol/water partition coefficient (logP) of the active elements; type: physicochemical
Excerpt: The logarithm of the octanol/water partition coefficient (logP) is used extensively to describe the lipophilic or hydrophobic properties of an active element. The logP property value is taken from the ratio of the respective concentrations of the active element in the n-octanol and water partitions of a two-phase system at equilibrium. Among other methods, the classical and most reliable method of logP determination is the shake-flask method, which consists of dissolving some of the active element in question in a volume of n-octanol and water, then measuring the concentration of the solute in each solvent (Organization for Economic Cooperation and Development, Guidelines for The Testing of Chemicals, OECD 107, Partition Coefficient (n-octanol/water)-Shake Flask Method, Adopted 27 Jul. 1995-, OECD, Paris, France).
Table 1 lists active elements used in the study, providing chemical name (first column), the Chemical Abstract Service number (CAS#, second column), supplier and supplier product code (third and fourth column), the logarithm of the octanol/water partition coefficient (logP) and the concentration used in final formulations in parts per million of volume (ppmV). These nine active elements are volatile aroma compounds.

[3] = n-octanol/water, logarithm of the octanol/water partition coefficient, read-out: logP

SMILES | significance of Tmax difference [1] | logP [2, 3] | Cmax released in headspace, comparison ([1]; emulsion of the present invention 5 wt % (MG:MCT 1:20) vs simple emulsion 10 wt % MCT) | logP ([2]; logarithm of the octanol/water partition coefficient) | logP [2]
CC/C=C\CCO [cis-3-Hexen-1-ol] | significant increase | […] | – | – | –
C=CC(C)(O)CCC=C(C)C (centres unmarked) [Linalool] | significant increase | 3.28 | significantly higher | – | –
CCOC(=O)CC(C)C [Ethyl isovalerate] | significant increase | 2.12 | – | – | –
CCC/C=C/C=O [Example 2E-hexenal, 2E-hexenal] | – | – | – | 1.576 | –
O=Cc1ccccc1 [Benzaldehyde] | significant increase | – | – | – | –
COc1nccnc1CC(C)C [3-methoxy-2-isobutylpyrazine] | significant increase | 2.62 | – | – | –
CC(=O)C(C)=O [Diacetyl] | non-significant difference | – | – | – | −1.332
CCCCCCCC=O [Octanal] | significant increase | 3.03 | – | – | –
CC=O [Acetaldehyde] | non-significant difference | -0.156 | – | – | –
